Results reported in the NIST ThermoML archive (doi:10.1021/je060271a).
Several values for one entry are separate records, joined by “and”; a condition that tells them apart may be missing. Identical values can stand only once.

Details: 283.15 K, Liquid, Vibrating tube method

CCCCCC(=O)OCC(COC(=O)CCCCC)(COC(=O)CCCCC)COC(=O)CCCCC [pentaerythritol tetrahexanoate]
Details	mass density
118.4 kPa	1004.2 kg/m3
118.7 kPa	1004.2 kg/m3
118.9 kPa	1004.2 kg/m3
119.1 kPa	1004.4 kg/m3 and 1004.2 kg/m3
119.3 kPa	1004 kg/m3
119.6 kPa	1004.2 kg/m3
119.8 kPa	1004.1 kg/m3
119.9 kPa	1004.3 kg/m3 and 1004.2 kg/m3
120.1 kPa	1004.1 kg/m3
121.3 kPa	1004.2 kg/m3
121.7 kPa	1004.2 kg/m3 and 1004.1 kg/m3
122 kPa	1004.3 kg/m3
122.4 kPa	1004.1 kg/m3
122.5 kPa	1004.3 kg/m3
122.9 kPa	1004.1 kg/m3
123 kPa	1004.2 kg/m3
123.2 kPa	1004.2 kg/m3
123.6 kPa	1004.3 kg/m3 and 1004.2 kg/m3
123.7 kPa	1004.1 kg/m3
123.9 kPa	1004.2 kg/m3 and 1004.1 kg/m3
124.3 kPa	1004.2 kg/m3
124.6 kPa	1004 kg/m3
124.9 kPa	1004.1 kg/m3
125 kPa	1004.2 kg/m3
125.1 kPa	1004.1 kg/m3
125.3 kPa	1004.2 kg/m3
125.8 kPa	1004 kg/m3
126 kPa	1004.3 kg/m3
126.2 kPa	1004.2 kg/m3 and 1004.1 kg/m3
127.9 kPa	1004.2 kg/m3
128.1 kPa	1004.3 kg/m3
128.4 kPa	1004.3 kg/m3
134 kPa	1004.1 kg/m3
134.1 kPa	1004.2 kg/m3
134.3 kPa	1004.1 kg/m3
134.5 kPa	1004.3 kg/m3
135 kPa	1004.2 kg/m3
135.2 kPa	1004.2 kg/m3
135.3 kPa	1004.1 kg/m3
136 kPa	1004.2 kg/m3
136.4 kPa	1004.2 kg/m3
136.6 kPa	1004.2 kg/m3 and 1004.1 kg/m3
136.7 kPa	1004.3 kg/m3
136.9 kPa	1004.1 kg/m3
137.4 kPa	1004.2 kg/m3
137.6 kPa	1004.3 kg/m3 and 1004.2 kg/m3
137.9 kPa	1004.3 kg/m3
138.1 kPa	1004.2 kg/m3
138.8 kPa	1004.2 kg/m3
139 kPa	1004.1 kg/m3 and 1004.3 kg/m3
139.2 kPa	1004.3 kg/m3 and 1004.2 kg/m3
139.3 kPa	1004.2 kg/m3
139.7 kPa	1004.2 kg/m3 and 1004.1 kg/m3 and 1004.3 kg/m3
140.4 kPa	1004.3 kg/m3
140.6 kPa	1004.3 kg/m3
140.7 kPa	1004.2 kg/m3
141.1 kPa	1004.2 kg/m3
141.4 kPa	1004.2 kg/m3
141.6 kPa	1004.2 kg/m3
142.1 kPa	1004.3 kg/m3
142.5 kPa	1004.2 kg/m3
143 kPa	1004.2 kg/m3 and 1004.1 kg/m3
143.2 kPa	1004.2 kg/m3
144 kPa	1004.2 kg/m3 and 1004.1 kg/m3
144.2 kPa	1004.3 kg/m3
144.4 kPa	1004.1 kg/m3
144.7 kPa	1004.1 kg/m3
145.4 kPa	1004.2 kg/m3
145.9 kPa	1004.3 kg/m3
146.3 kPa	1004.2 kg/m3
146.6 kPa	1004.2 kg/m3
147.3 kPa	1004.2 kg/m3
